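Step 1: Grow cells in 96-well plates. Step 2: Expose to compound for 48 hours at 5 concentrations. Step 3: Interpolate endpoints linearly; if unreached, use highest concentration. GI50 = concentration required for 50% inhibition of growth.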 The source made the active and inactive calls. No stated cut-off is given here; in the data, active = GI50 up to about 1.1 µM and inactive = higher.
What was measured:
Experiment in all cases: NCI anticancer screen, dose series, 48 h
OVCAR-8 = tested on: OVCAR-8
OVCAR-4 = tested on: OVCAR-4
HCC 2998 = tested on: HCC 2998
LOX IMVI = tested on: LOX IMVI
RPMI-8226 = tested on: RPMI-8226
UACC-257 = tested on: UACC-257
SN12C = tested on: SN12C
M14 = tested on: M14
786-0 = tested on: 786-0
DMS-114 = tested on: DMS-114
NCI-H522 = tested on: NCI-H522
OVCAR-3 = tested on: OVCAR-3
SR = tested on: SR
RXF 393 = tested on: RXF 393
SF-295 = tested on: SF-295
NCI-H460 = tested on: NCI-H460
U-251 = tested on: U-251
HOP-92 = tested on: HOP-92
CAKI-1 = tested on: CAKI-1
CCRF-CEM = tested on: CCRF-CEM
SNB-78 = tested on: SNB-78
MOLT-4 = tested on: MOLT-4
SW-620 = tested on: SW-620
SK-MEL-28 = tested on: SK-MEL-28
EKVX = tested on: EKVX
COLO 205 = tested on: COLO 205
A498 = tested on: A498
IGROV-1 = tested on: IGROV-1
DLD-1 = tested on: DLD-1
SF-268 = tested on: SF-268
SF-539 = tested on: SF-539
HOP-62 = tested on: HOP-62
HCT-116 = tested on: HCT-116
KM-20L2 = tested on: KM-20L2
TK-10 = tested on: TK-10
UO-31 = tested on: UO-31
NCI-H23 = tested on: NCI-H23
K562 = tested on: K562
HCT-15 = tested on: HCT-15
HL-60 = tested on: HL-60
SK-MEL-5 = tested on: SK-MEL-5
SNB-19 = tested on: SNB-19
XF498 = tested on: XF498
SK-MEL-2 = tested on: SK-MEL-2
KM12 = tested on: KM12
DMS-273 = tested on: DMS-273
A549 = tested on: A549
SK-OV-3 = tested on: SK-OV-3
LXFL 529 = tested on: LXFL 529
M19-MEL = tested on: M19-MEL
ACHN = tested on: ACHN
UACC-62 = tested on: UACC-62
Malme-3M = tested on: Malme-3M

Measured: GI50

CC(=O)Oc1cc(Cl)c(OC(C)=O)c2c(OC(C)=O)c(C)c(O[Si](C)(C)C(C)(C)C)cc12
inactive: OVCAR-8 2.52 µM | OVCAR-4 13.2 µM | HCC 2998 4.46 µM | LOX IMVI 4.01 µM | RPMI-8226 2.93 µM | UACC-257 3.23 µM | SN12C 11.1 µM | M14 5.7 µM | 786-0 14.9 µM | DMS-114 3 µM | NCI-H522 5.07 µM | OVCAR-3 15.6 µM | SR 3.62 µM | RXF 393 3.28 µM | SF-295 11 µM | NCI-H460 3.79 µM | U-251 2.32 µM | HOP-92 7.52 µM | CAKI-1 16 µM | CCRF-CEM 2.54 µM | SNB-78 3.12 µM | MOLT-4 3.31 µM | SW-620 2.8 µM | SK-MEL-28 3.05 µM | EKVX 18.7 µM | COLO 205 15.1 µM | A498 2.09 µM | IGROV-1 3.64 µM | DLD-1 1.85 µM | SF-268 11.5 µM | SF-539 14.5 µM | HOP-62 19.1 µM | HCT-116 3.35 µM | KM-20L2 17.4 µM | TK-10 5.31 µM | UO-31 13.5 µM | NCI-H23 4.18 µM | K562 3.22 µM | HL-60 2.84 µM | SK-MEL-5 4.41 µM | SNB-19 12.8 µM | XF498 17.5 µM | SK-MEL-2 17.9 µM | KM12 12.8 µM | DMS-273 5.47 µM | A549 5.3 µM
4.76 µM: HCT-15

CCOC(=O)C(Cc1ccc2ccccc2c1)(Cc1ccc2ccccc2c1)C(C)=O
8.47 µM: HCT-15
active: MOLT-4 0.635 µM
inactive: OVCAR-4 8.67 µM | HCC 2998 3.02 µM | LOX IMVI > 10 µM | RPMI-8226 1.86 µM | SK-OV-3 > 10 µM | LXFL 529 4.47 µM | SN12C > 10 µM | M19-MEL > 10 µM | M14 > 10 µM | 786-0 4.92 µM | NCI-H460 7.31 µM | U-251 > 10 µM | HOP-92 5.41 µM | CCRF-CEM 5.13 µM | SNB-78 > 10 µM | SW-620 > 10 µM | COLO 205 > 10 µM | IGROV-1 > 10 µM | DLD-1 2.69 µM | ACHN > 10 µM | HOP-62 7.53 µM | KM-20L2 > 10 µM | K562 1.67 µM | UACC-62 > 10 µM | Malme-3M 3.28 µM | XF498 3.39 µM | DMS-273 5.38 µM | A549 3.78 µM

Source: ChEMBL document CHEMBL1201862, “PubChem BioAssay data set” (2004)
